Measurements: patent US11371055B2, “Herbicide resistance genes” (CORTEVA AGRISCIENCE LLC, priority 2005, dated 2022)

Experiments:
[1] = test system: PAT/Cry1F-transformed Arabidopsis (auxin-sensitive transformed control); test: T1 Arabidopsis postemergence herbicide dose response, transformed control; type: in vivo, Arabidopsis thaliana
Description: Seven days after planting (DAP) and again 11 DAP, T1 plants (cotyledon and 2-4-lf stage, respectively) were sprayed with a 0.2% solution of Liberty herbicide (200 g ai/L glufosinate, Bayer Crop Sciences, Kansas City, Mo.) at a spray volume of 10 ml/tray (703 L/ha) using a DeVilbiss compressed air spray tip to deliver an effective rate of 280 g ai/ha glufosinate per application. Survivors (plants actively growing) were identified 4-7 days after the final spraying and transplanted individually into 3-inch pots prepared with potting media (Metro Mix 360). Transplanted plants were covered with humidity domes for 3-4 days and placed in a 22° C. growth chamber as before or moved to directly to the greenhouse. Domes were subsequently removed and plants reared in the greenhouse (22±5° C., 50±30% RH, 14 h light:10 dark, minimum 500 μE/m^2 s^1 natural+supplemental light) at least 1 day prior to testing for the ability of AAD-12 (v1) (plant optimized gene) to provide phenoxy auxin herbicide resistance.
T1 plants were then randomly assigned to various rates of 2,4-D. For Arabidopsis, 50 g ae/ha 2,4-D is an effective dose to distinguish sensitive plants from ones with meaningful levels of resistance. Elevated rates were also applied to determine relative levels of resistance (50, 200, 800, or 3200 g ac/ha). Tables 10 and 11 show comparisons drawn to an aryloxyalkanoate herbicide resistance gene (AAD-1 (v3)) previously described in PCT/US2005/014737.
All auxin herbicide applications were made using the DeVilbiss sprayer as described above to apply 703 L/ha spray volume (0.4 ml solution/3-inch pot) or applied by track sprayer in a 187 L/ha spray volume. 2,4-D used was either technical grade (Sigma, St. Louis, Mo.) dissolved in DMSO and diluted in water (<1% DMSO final concentration) or the commercial dimethylamine salt formulation (456 g ac/L, NuFarm, St Joseph, Mo.). Dichlorprop used was commercial grade formulated as potassium salt of R-dichlorprop (600 g ai/L, AH Marks). As herbicide rates increased beyond 800 g ae/ha, the pH of the spray solution became exceedingly acidic, burning the leaves of young, tender Arabidopsis plants and complicating evaluation of the primary effects of the herbicides. It became standard practice to apply these high rates of herbicides in 200 mM HEPES buffer, pH 7.5.
The first Arabidopsis transformations were conducted using AAD-12 (v1) (plant optimized gene). T1 transformants were first selected from the background of untransformed seed using a glufosinate selection scheme. Over 300,000 T1 seed were screened and 316 glufosinate resistant plants were identified (PAT gene), equating to a transformation/selection frequency of 0.10% which lies in the normal range of selection frequency of constructs where PAT+Liberty are used for selection. T1 plants selected above were subsequently transplanted to individual pots and sprayed with various rates of commercial aryloxyalkanoate herbicides. Table 11 compares the response of AAD-12 (v1) and control genes to impart 2,4-D resistance to Arabidopsis T1 transformants. Response is presented in terms of % visual injury 2 WAT. […] Since each T1 is an independent transformation event, one can expect significant variation of individual T1 responses within a given rate. An arithmetic mean and standard deviation is presented for each treatment. The range in individual response is also indicated in the last column for each rate and transformation. PAT/Cry1F-transformed Arabidopsis served as an auxin-sensitive transformed control. The AAD-12 (v1) gene imparted herbicide resistance to individual T1 Arabidopsis plants. Within a given treatment, the level of plant response varied greatly and can be attributed to the fact each plant represents an independent transformation event. Of important note, at each 2,4-D rate tested, there were individuals that were unaffected while some were severely affected. […]

[2] = test system: wild-type rice (Clearfield 131); test: Field tolerance of rice, wild-type; type: in vivo, Oryza sativa; conditions: for % Visual injury 7DAT / % Visual injury 15DAT: Wild-type Clearfield
Description: (§1) A field level tolerance trial was conducted with AAD-12 (v1) event pDAB4101[20] and one wild-type rice (Clearfield 131) at Wayside, Miss. (a non-transgenic imidazolinone-resistant variety). The experimental design was a randomized complete block design with a single replication. […] Within each herbicide treatment, two rows of T1 generation pDAB4101[20] and two rows of Clearfield rice were planted using a small plot drill with 8-inch row spacing. The pDAB4101[20] rice contained the AHAS gene as a selectable marker for the AAD-12(v1) gene. Imazethapyr was applied at the one leaf stage as selection agent to remove any AAD-12 (v1) null plants from the plots. Herbicide treatments were applied when the rice reached the 2 leaf stage using compressed air backpack sprayer delivering 187 L/ha carrier volume at 130-200 kpa pressure. […]

[3] = test system: AAD-12 (v1) event pDAB4101[20] T1 rice; test: Field tolerance of rice, AAD-12 event; type: in vivo, Oryza sativa; conditions: for visual injury: 7 or 15DAT; for % Visual injury 7DAT / % Visual injury 15DAT: AAD-12 event pDAB4101[20]
Description: as §1

[4] = test system: Segregating T2 AAD-12 (v1) plants (pDAB724.01.1.20); test: Foliar-applied auxinic herbicides on T2 Arabidopsis; type: in vivo, Arabidopsis thaliana; conditions: Pyridyloxyacetic auxins
Description: The ability of AAD-12 (v1) to provide resistance to other aryloxyalkanoate auxin herbicides in transgenic Arabidopsis was determined by foliar application of various substrates. T2 generation Arabidopsis seed was stratified, and sown into selection trays much like that of Arabidopsis (Example 6.4). A transformed-control line containing PAT and the insect resistance gene Cry1F was planted in a similar manner. Seedlings were transferred to individual 3-inch pots in the greenhouse. All plants were sprayed with the use of a track sprayer set at 187 L/ha. The plants were sprayed with a range of pyridyloxyacetate herbicides: 280-2240 g ae/ha triclopyr (Garlon 3A, Dow AgroSciences) and 280-2240 g ae/ha fluroxypyr (Starane, Dow AgroSciences); and the 2,4-D metabolite resulting from AAD-12 activity, 2,4-dichlorophenol (DCP, Sigma) (at a molar equivalent to 280-2240 g ac/ha of 2,4-D, technical grade DCP was used). All applications were formulated in water. Each treatment was replicated 3-4 times. Plants were evaluated at 3 and 14 days after treatment.

[5] = 50 g ae/ha 2,4-D postemergence, 2 WAT
[6] = 200 g ae/ha 2,4-D postemergence, 2 WAT
[7] = 800 g ae/ha 2,4-D postemergence, 2 WAT
[8] = 3200 g ae/ha 2,4-D postemergence, 2 WAT
[9] = 50 g ae/ha R-dichlorprop postemergence
[10] = 200 g ae/ha R-dichlorprop postemergence
[11] = 800 g ae/ha R-dichlorprop postemergence
[12] = 3200 g ae/ha R-dichlorprop postemergence

O=C(O)COc1ccc(Cl)cc1Cl [2,4-D, 2,4-dichlorophenoxyacetic acid]
% Injury 20-40% (number of individuals) [1, 5]: 1
% Injury <20% (number of individuals) [1, 5]: 4
% Injury >40% (number of individuals) [1, 5]: 5
% Injury Ave [1, 5]: 31%
% Injury 20-40% (number of individuals) [1, 6]: 0
% Injury <20% (number of individuals) [1, 6]: 0
% Injury >40% (number of individuals) [1, 6]: 10
% Injury Ave [1, 6]: 70%
% Injury 20-40% (number of individuals) [1, 7]: 0
% Injury <20% (number of individuals) [1, 7]: 0
% Injury >40% (number of individuals) [1, 7]: 10
% Injury Ave [1, 7]: 81%
% Injury 20-40% (number of individuals) [1, 8]: 0
% Injury <20% (number of individuals) [1, 8]: 0
% Injury >40% (number of individuals) [1, 8]: 10
% Injury Ave [1, 8]: 91%
visual injury ([2]; 2,4-D at 2240 g ae/ha, 7DAT): 30%
visual injury ([2]; 2,4-D at 2240 g ae/ha, 15DAT): 35%
% Visual injury 7DAT ([2]; 2240 GM AE/HA): 15%
% Visual injury 15DAT ([2]; 2240 GM AE/HA): 35%
visual injury ([3]; 2,4-D at 2240 g ae/ha): no injury
% Visual injury 7DAT ([3]; 2240 GM AE/HA): 0%
% Visual injury 15DAT ([3]; 2240 GM AE/HA): 0%

C[C@@H](Oc1ccc(Cl)cc1Cl)C(=O)O [(R)-dichlorprop, R-2,4-dichlorophenoxypropionic acid]
% Injury 20-40% (number of individuals) [1, 9]: 10
% Injury <20% (number of individuals) [1, 9]: 0
% Injury >40% (number of individuals) [1, 9]: 0
% Injury Ave [1, 9]: 27%
% Injury 20-40% (number of individuals) [1, 10]: 0
% Injury <20% (number of individuals) [1, 10]: 0
% Injury >40% (number of individuals) [1, 10]: 10
% Injury Ave [1, 10]: 69%
% Injury 20-40% (number of individuals) [1, 11]: 0
% Injury <20% (number of individuals) [1, 11]: 0
% Injury >40% (number of individuals) [1, 11]: 10
% Injury Ave [1, 11]: 83%
% Injury 20-40% (number of individuals) [1, 12]: 0
% Injury <20% (number of individuals) [1, 12]: 0
% Injury >40% (number of individuals) [1, 12]: 10
% Injury Ave [1, 12]: 90%

Nc1c(Cl)c(F)nc(OCC(=O)O)c1Cl [Fluroxypyr]
Ave % Injury 14DAT ([4]; 280 g ae/ha foliar): 0%
Ave % Injury 14DAT ([4]; 560 g ae/ha foliar): 2%
Ave % Injury 14DAT ([4]; 1120 g ae/ha foliar): 3%
Ave % Injury 14DAT ([4]; 2240 g ae/ha foliar): 5%

O=C(O)COc1nc(Cl)c(Cl)cc1Cl [triclopyr]
visual injury ([2]; 2× rate of triclopyr (560 g ae/ha), 7DAT): 15%
visual injury ([2]; 2× rate of triclopyr (560 g ae/ha), 15DAT): 25%
% Visual injury 7DAT ([2]; 840 GM AE/HA): 30%
% Visual injury 15DAT ([2]; 840 GM AE/HA): 25%
visual injury ([3]; 2× rate of triclopyr (560 g ae/ha)): no injury
% Visual injury 7DAT ([3]; 840 GM AE/HA): 0%
% Visual injury 15DAT ([3]; 840 GM AE/HA): 0%
Ave % Injury 14DAT ([4]; 280 g ae/ha foliar): 0%
Ave % Injury 14DAT ([4]; 560 g ae/ha foliar): 3%
Ave % Injury 14DAT ([4]; 1120 g ae/ha foliar): 0%
Ave % Injury 14DAT ([4]; 2240 g ae/ha foliar): 3%
